Structures can show the parent of a compound that is named as a salt.
What follows are compounds tested on Human mast cells (CHMC) (assay: LD Tryptase release assay in CHMC (mast cell activation induced by FcγR cross-linking)). Conditions: Homo sapiens, Mast cell, anti-IgG stimulation, activity of tryptase released upon degranulation.
Format: cell-based
Protocol: Compounds were assayed for inhibition of mast cell activation induced by FcγR cross-linking by measuring the activity of tryptase released upon degranulation as follows:
Human mast cells were cultured and differentiated from […] progenitor cell as described in U.S. Patent Publication No. 2005-234049, incorporated herein by reference. For example, 65 μL of various concentrations of the compound to be assayed were prepared in MT (137 mM NaCl, 2.7 mM KCl, 1.8 mM CaCl2, 1.0 mM MgCl2, 5.6 mM Glucose, 20 mM Hepes (pH 7.4), 0.1% Bovine Serum Albumin, (Sigma A4503)) containing 2% MeOH and 1% DMSO, or control buffer were added to duplicate 96-well V-bottom plates. Pelleted and re-suspended (in warm MT) CHMC cells (65 μL) were added to each 96-well plate, mixed and incubated for 1 hour at 37° C. 25 μl of 6× anti-IgG Rabbit anti-human IgG, Affinity purified (Bethyl Laboratories Cat No. A80-105A3) final concentration 1 μg/mL, was added to the test wells. MT (25 μL) was added to control wells. After a 60-minute incubation at 37° C., cells and cell debris were pelleted by centrifugation at 1000 rpm for 10 min and tryptase and leukotriene C4 levels were measured.
To measure tryptase levels, 25 μL of supernatant from each well was transferred to a fresh 96-well black bottom plate, to which 100 μL of fresh tryptase substrate solution [(Z-Ala-Lys-Arg-AMC2TFA; Enzyme Systems Products, #AMC-246)] 1:2000 in tryptase assay buffer [0.1 M Hepes (pH 7.5), 10% w/v Glycerol, 10 μM Heparin (Sigma H-4898) 0.01% NaN3] was added. After 30 minute incubation at room temperature, the optical density of the plates is measured at 355 nm/460 nm on a spectrophotometric plate reader. Table 1 provides the IC50 values.
Compounds of the disclosure were assayed for their ability to inhibit mast cell activation induced by FcγR cross-linking by measuring the activity of tryptase released upon degranulation. The IC50 values for the LD Tryptase assay are presented in Table 2, in which “0” is >100 μM; “A” is 1-100 μM; “B” is 0.5-1 μM; “C” is 0.1-0.5 μM; and “D” is less than 0.1 μM: […]
CC1(C)CN(c2ccc(Nc3ncc(F)c(Nc4ccc5c(n4)NC(=O)C4(CCC4)O5)n3)cc2)CCO1 [Compound 124, N2-[4-(2,2-Dimethylmorpholino)phenyl]-5-fluoro-N4-(3′-oxo-3′,4′-dihydrospiro[cyclobutane-1,2′-pyrido[3,2-b][1,4]oxazine]-6-yl)-2,4-pyrimidinediamine] showed an IC50 of 1000 to 100000 nM. C[C@H]1COCCN1c1ccc(Nc2ncc(F)c(Nc3ccc4c(n3)NC(=O)CO4)n2)cc1 [Compound 119, N4-(3,4-dihydro-3-oxo-2H-pyrido[3,2-b][1,4]oxazin-6-yl)-5-fluoro-N2-[4-((3S)-3-methylmorpholino)phenyl]-2,4-pyrimidinediamine] was tested, and the IC50 was < 100 nM. With C[C@H]1CN(c2ccc(Nc3ncc(F)c(Nc4ccc5c(n4)NC(=O)C(C)(C)O5)n3)cn2)CCO1 [Compound 94, N4-(2,2-dimethyl-3,4-dihydro-3-oxo-2H-pyrido[3,2-b][1,4]oxazin-6-yl)-5-fluoro-N2-[6-((2S)-2-methylmorpholino)pyridin-3-yl]-2,4-pyrimidinediamine] the IC50 was 100 to 500 nM. With O=C1COc2ccc(Nc3nc(Nc4ccc(N5CCOCC5=O)cc4)ncc3F)nc2N1 [Compound 39] the IC50 was 100 to 500 nM. With COc1cc(Nc2ncc(F)c(Nc3ccc4c(n3)NC(=O)C(C)(C)O4)n2)ccc1N1CCOCC1 [Compound 27, N4-(2,2-dimethyl-3,4-dihydro-3-oxo-2H-pyrido[3,2-b][1,4]oxazin-6-yl)-5-fluoro-N2-[3-methoxy-4-morpholinophenyl]-2,4-pyrimidinediamine] the IC50 was < 100 nM. For CC1(C)Oc2ccc(Nc3nc(Nc4ccc(N5CCCOCC5)cc4)ncc3F)nc2NC1=O [Compound 43, N4-(2,2-dimethyl-3,4-dihydro-3-oxo-2H-pyrido[3,2-b][1,4]oxazin-6-yl)-5-fluoro-N2-[4-homomorpholinophenyl]-2,4-pyrimidinediamine], the IC50 was 100 to 500 nM. For CC1(C)Oc2ccc(Nc3nc(Nc4ccc(N5CCC(C(N)=O)CC5)cc4)ncc3F)nc2NC1=O [Compound 150, N4-(2,2-dimethyl-3,4-dihydro-3-oxo-2H-pyrido[3,2-b][1,4]oxazin-6-yl)-5-fluoro-N2-[4-(4-(aminocarbonyl)piperidin-1-yl)phenyl]-2,4-pyrimidinediamine], the IC50 was 100 to 500 nM. For CC(C)[C@@H]1COC(=O)N1c1ccc(Nc2ncc(F)c(Nc3ccc4c(n3)NC(=O)C(C)(C)O4)n2)cn1 [Compound 73, N4-(2,2-dimethyl-3,4-dihydro-3-oxo-2H-pyrido[3,2-b][1,4]oxazin-6-yl)-5-fluoro-N2-[6-((4R)-4-isopropyl-2-oxooxazolidin-3-yl)pyridin-3-yl]-2,4-pyrimidinediamine], the IC50 was 100 to 500 nM. CN1CCN(c2ccc(Nc3ncc(F)c(Nc4ccc5c(n4)NC(=O)CO5)n3)cn2)CC1 [Compound 19, N4-(3,4-dihydro-3-oxo-2H-pyrido[3,2-b][1,4]oxazin-6-yl)-5-fluoro-N2-[6-(4-methylpiperazin-1-yl)pyridin-3-yl]-2,4-pyrimidinediamine] gave an IC50 of 1000 to 100000 nM. CC1(C)Oc2ccc(Nc3nc(Nc4ccc(N5CC[C@@H](F)C5)nc4)ncc3F)nc2NC1=O [Compound 136, (R)—N4-(2,2-dimethyl-3,4-dihydro-3-oxo-2H-pyrido[3,2-b][1,4]oxazin-6-yl)-5-fluoro-N2-[6-(3-fluoropyrrolidin-1-yl)pyrid-3-yl]-2,4-pyrimidinediamine] was tested, and the IC50 was < 100 nM. In the case of CCOC1CCN(c2ccc(Nc3ncc(F)c(Nc4ccc5c(n4)NC(=O)C(C)(C)O5)n3)cc2)CC1 [Compound 85, N4-(2,2-dimethyl-3,4-dihydro-3-oxo-2H-pyrido[3,2-b][1,4]oxazin-6-yl)-5-fluoro-N2-[4-(4-ethoxypiperidin-1-yl)phenyl]-2,4-pyrimidinediamine], the IC50 is reported as 100 to 500 nM. For CC1(C)Oc2ccc(Nc3nc(Nc4ccc(N5CCOCC5)c(OC(F)(F)F)c4)ncc3F)nc2NC1=O [Compound 28, N4-(2,2-dimethyl-3,4-dihydro-3-oxo-2H-pyrido[3,2-b][1,4]oxazin-6-yl)-5-fluoro-N2-[3-trifluoromethoxy-4-morpholinophenyl]-2,4-pyrimidinediamine], the IC50 was > 100000 nM. For C[C@@H]1CN(c2ccc(Nc3ncc(F)c(Nc4ccc5c(n4)NC(=O)CO5)n3)cc2)CCO1 [Compound 117, N4-(3,4-dihydro-3-oxo-2H-pyrido[3,2-b][1,4]oxazin-6-yl)-5-fluoro-N2-[4-((2R)-2-methylmorpholino)phenyl]-2,4-pyrimidinediamine], the IC50 was < 100 nM. For C[C@@H]1COCCN1c1ccc(Nc2ncc(F)c(Nc3ccc4c(n3)NC(=O)C(C)(C)O4)n2)cn1 [Compound 50, N4-(2,2-dimethyl-3,4-dihydro-3-oxo-2H-pyrido[3,2-b][1,4]oxazin-6-yl)-5-fluoro-N2-[6-((3R)-3-methylmorpholino)pyridin-3-yl]-2,4-pyrimidinediamine], the IC50 was < 100 nM. O=C1COc2ccc(Nc3nc(Nc4ccc(N5CCCCC5)cc4)ncc3F)nc2N1 [Compound 83, N4-(3,4-dihydro-3-oxo-2H-pyrido[3,2-b][1,4]oxazin-6-yl)-5-fluoro-N2-[4-(piperidin-1-yl)phenyl]-2,4-pyrimidinediamine] gave an IC50 of 100 to 500 nM. O=C1COc2ccc(Nc3nc(Nc4ccc(N5CCO[C@@H](CO)C5)cc4)ncc3F)nc2N1 [Compound 127, N4-(3,4-dihydro-3-oxo-2H-pyrido[3,2-b][1,4]oxazin-6-yl)-5-fluoro-N2-[4-((2-hydroxymethyl)morpholino)phenyl]-2,4-pyrimidinediamine] was tested, and the IC50 was < 100 nM. In the case of C[C@H]1CN(c2ccc(Nc3ncc(F)c(Nc4ccc5c(n4)NC(=O)CO5)n3)cn2)[C@@H](C)CO1 (racemic) [Compound 104, rac-N4-(3,4-dihydro-3-oxo-2H-pyrido[3,2-b][1,4]oxazin-6-yl)-N2-[6-(2,5-dimethylmorpholino)pyridin-3-yl]-5-fluoro-2,4-pyrimidinediamine], the IC50 is reported as 100 to 500 nM. For CC1(C)Oc2ccc(Nc3nc(Nc4ccc(N5CCSCC5)cc4)ncc3F)nc2NC1=O [Compound 153, N4-(2,2-dimethyl-3,4-dihydro-3-oxo-2H-pyrido[3,2-b][1,4]oxazin-6-yl)-5-fluoro-N2-[4-thiomorpholinophenyl]-2,4-pyrimidinediamine], the IC50 was 1000 to 100000 nM. In the case of CC1(C)Oc2ccc(Nc3nc(Nc4cnc(N5CCOCC5)c(F)c4)ncc3F)nc2NC1=O [Compound 10, N4-(2,2-dimethyl-3,4-dihydro-3-oxo-2H-pyrido[3,2-b][1,4]oxazin-6-yl)-5-fluoro-N2-[5-fluoro-6-morpholinopyridin-3-yl]-2,4-pyrimidinediamine], the IC50 is reported as 100 to 500 nM. Compound CCOC[C@H]1CN(c2ccc(Nc3ncc(F)c(Nc4ccc5c(n4)NC(=O)CO5)n3)cn2)CCO1 [Compound 102, N4-(3,4-dihydro-3-oxo-2H-pyrido[3,2-b][1,4]oxazin-6-yl)-N2-[6-(((2R)-2-ethoxymethyl)morpholino)pyridin-3-yl]-5-fluoro-2,4-pyrimidinediamine] has an IC50 of 100 to 500 nM. CC1(C)Oc2ccc(Nc3nc(Nc4ccc(N5CCC(C(N)=O)C5)nc4)ncc3F)nc2NC1=O (stereo not shown) [Compound 70, N4-(2,2-dimethyl-3,4-dihydro-3-oxo-2H-pyrido[3,2-b][1,4]oxazin-6-yl)-5-fluoro-N2-[6-(3-(aminocarbonyl)pyrrolidin-1-yl)pyridin-3-yl]-2,4-pyrimidinediamine] gave an IC50 of 500 to 1000 nM.

Same assay, conditions: anti-IgG stimulation, activity of tryptase released upon degranulation
CC1(C)Oc2ccc(Nc3nc(Nc4ccc(N5CCOCC5)nc4)ncc3F)nc2NC1=O [Compound 3, N4-(2,2-dimethyl-3,4-dihydro-3-oxo-2H-pyrido[3,2-b][1,4]oxazin-6-yl)-5-fluoro-N2-[6-morpholinopyridin-3-yl]-2,4-pyrimidinediamine] was tested, and the IC50 was < 100 nM. In the case of C[C@H]1COCCN1c1ccc(Nc2ncc(F)c(Nc3ccc4c(n3)N(COP(=O)(O)O)C(=O)C(C)(C)O4)n2)cn1 [Compound 97, N4-(2,2-dimethyl-3,4-dihydro-4-[(dihydrogenphosphonoxy)methyl]-3-oxo-2H-pyrido[3,2-b][1,4]oxazin-6-yl)-5-fluoro-N2-[6-((3S)-3-methylmorpholino)pyridin-3-yl]-2,4-pyrimidinediamine disodium salt], the IC50 is reported as 1000 to 100000 nM. Work on CC1(C)Oc2ccc(Nc3nc(Nc4ccc(N5CCOCC5)nc4)ncc3F)nc2N(COP(=O)(O)O)C1=O [Compound 4, N4-(2,2-dimethyl-3,4-dihydro-4-[(dihydrogenphosphonoxy)methyl]-3-oxo-2H-pyrido[3,2-b][1,4]oxazin-6-yl)-5-fluoro-N2-(6-morpholinopyridin-3-yl)-2,4-pyrimidinediamine disodium salt] yielded an IC50 of 1000 to 100000 nM. CC1(C)Oc2ccc(Nc3nc(Nc4ccc(N5CCOCC5)c(F)c4)ncc3F)nc2N(COP(=O)(O)O)C1=O [Compound 113, N4-(2,2-dimethyl-3,4-dihydro-4-[(dihydrogenphosphonoxy)methyl]-3-oxo-2H-pyrido[3,2-b][1,4]oxazin-6-yl)-5-fluoro-N2-(3-fluoro-4-morpholinophenyl)-2,4-pyrimidinediamine disodium salt] was tested, and the IC50 was 1000 to 100000 nM.

Reference: patent US8618095B2 (Rigel Pharmaceuticals, Inc., priority 2010, dated 2013)
